Test results reported in US11566022B2, “3-(5-methoxy-1-oxoisoindolin-2-yl)piperidine-2,6-dione derivatives and uses thereof” (NOVARTIS AG, priority 2019, dated 2023).
Where two headings read alike, the source gives them in different places.

Molecular target: HiBit-WIZ fusion protein (Homo sapiens, UniProt O95785+Q96SW2)
Assay: Quantification of WIZ protein levels in HiBit tag fusion protein assay (WIZ HiBit assay in 293T cells)
Assay type: cell-based
Design: Dmax: dose or concentration left out as unconfirmed
Conditions: for Dmax / remaining activity at up to 25 µM / remaining activity: HEK-293T, 293T cells; for remaining activity at up to 25 µM: DMSO-normalized, curve-fitted percentage of WIZ-HiBit remaining at 25 uM, read-out: WIZ Amax; for DC50: WIZ HiBit assay in 293T cells, 10-point, 5-fold dose response, highest concentration 25 μM, about 18 hours, read-out: WIZ AC50; for remaining activity: read-out: WIZ Amax, DMSO-normalized, curve-fitted percentage of WIZ-HiBit remaining at 25 uM
[1] = 100 minus Amax, read-out: % degradation of WIZ (100-Amax)
[2] = read-out: % degradation of WIZ (100-Amax), 100 minus Amax

Chain of HiBit-WIZ fusion protein (O95785 whole entry, the tested form may be a part): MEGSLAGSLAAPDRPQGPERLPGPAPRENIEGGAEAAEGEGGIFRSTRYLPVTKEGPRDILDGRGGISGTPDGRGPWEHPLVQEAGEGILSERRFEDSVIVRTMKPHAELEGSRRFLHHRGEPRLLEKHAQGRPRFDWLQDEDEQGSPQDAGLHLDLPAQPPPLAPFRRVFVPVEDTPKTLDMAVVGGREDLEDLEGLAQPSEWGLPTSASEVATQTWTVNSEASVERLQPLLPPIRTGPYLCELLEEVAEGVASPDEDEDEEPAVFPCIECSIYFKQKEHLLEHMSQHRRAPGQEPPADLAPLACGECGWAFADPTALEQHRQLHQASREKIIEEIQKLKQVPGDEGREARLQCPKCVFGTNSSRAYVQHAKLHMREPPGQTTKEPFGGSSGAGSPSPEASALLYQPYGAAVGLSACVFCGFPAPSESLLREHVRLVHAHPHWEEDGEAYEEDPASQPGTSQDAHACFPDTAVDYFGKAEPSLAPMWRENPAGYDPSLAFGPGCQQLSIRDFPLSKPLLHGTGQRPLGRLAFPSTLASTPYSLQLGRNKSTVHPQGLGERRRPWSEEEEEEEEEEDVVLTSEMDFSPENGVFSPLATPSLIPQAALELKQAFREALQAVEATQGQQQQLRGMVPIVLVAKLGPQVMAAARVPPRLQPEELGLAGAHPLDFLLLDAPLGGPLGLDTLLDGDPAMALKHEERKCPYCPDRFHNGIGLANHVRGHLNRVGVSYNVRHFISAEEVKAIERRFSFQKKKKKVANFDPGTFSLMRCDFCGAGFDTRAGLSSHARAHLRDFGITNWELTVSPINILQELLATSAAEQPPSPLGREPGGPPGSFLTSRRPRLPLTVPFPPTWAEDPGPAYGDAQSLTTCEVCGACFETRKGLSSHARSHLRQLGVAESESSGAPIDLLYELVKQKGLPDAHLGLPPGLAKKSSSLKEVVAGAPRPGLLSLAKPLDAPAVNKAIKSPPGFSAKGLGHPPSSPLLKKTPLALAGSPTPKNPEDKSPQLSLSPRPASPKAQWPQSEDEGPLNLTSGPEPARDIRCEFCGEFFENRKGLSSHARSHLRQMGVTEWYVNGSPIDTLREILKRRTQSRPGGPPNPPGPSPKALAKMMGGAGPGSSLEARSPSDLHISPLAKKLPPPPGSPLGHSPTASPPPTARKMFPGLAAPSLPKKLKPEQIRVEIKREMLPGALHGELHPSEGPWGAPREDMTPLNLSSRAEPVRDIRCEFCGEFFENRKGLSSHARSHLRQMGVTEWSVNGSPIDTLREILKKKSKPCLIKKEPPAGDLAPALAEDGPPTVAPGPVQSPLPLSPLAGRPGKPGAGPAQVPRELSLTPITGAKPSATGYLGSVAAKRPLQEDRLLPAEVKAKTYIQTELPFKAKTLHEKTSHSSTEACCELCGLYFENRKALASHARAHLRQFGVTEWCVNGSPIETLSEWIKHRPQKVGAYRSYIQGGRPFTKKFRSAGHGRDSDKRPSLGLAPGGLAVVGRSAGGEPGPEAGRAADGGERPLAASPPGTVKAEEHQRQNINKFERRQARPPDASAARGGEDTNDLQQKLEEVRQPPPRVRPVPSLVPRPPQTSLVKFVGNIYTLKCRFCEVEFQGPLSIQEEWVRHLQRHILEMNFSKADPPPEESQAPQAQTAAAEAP
Chain of HiBit-WIZ fusion protein (Q96SW2 whole entry, the tested form may be a part): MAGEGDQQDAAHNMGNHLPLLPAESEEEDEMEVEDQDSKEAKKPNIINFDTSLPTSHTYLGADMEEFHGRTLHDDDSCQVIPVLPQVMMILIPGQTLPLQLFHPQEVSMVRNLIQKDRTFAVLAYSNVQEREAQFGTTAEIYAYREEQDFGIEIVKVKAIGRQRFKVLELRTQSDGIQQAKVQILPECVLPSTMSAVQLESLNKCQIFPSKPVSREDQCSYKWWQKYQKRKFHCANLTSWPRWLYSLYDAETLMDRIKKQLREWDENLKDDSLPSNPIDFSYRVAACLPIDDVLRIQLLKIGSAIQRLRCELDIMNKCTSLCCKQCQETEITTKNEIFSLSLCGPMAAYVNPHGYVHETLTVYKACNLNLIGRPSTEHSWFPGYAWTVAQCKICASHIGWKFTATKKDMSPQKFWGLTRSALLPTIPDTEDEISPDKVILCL
Chain of HiBit-WIZ fusion protein (Q16531 whole entry partner, the tested form may be a part): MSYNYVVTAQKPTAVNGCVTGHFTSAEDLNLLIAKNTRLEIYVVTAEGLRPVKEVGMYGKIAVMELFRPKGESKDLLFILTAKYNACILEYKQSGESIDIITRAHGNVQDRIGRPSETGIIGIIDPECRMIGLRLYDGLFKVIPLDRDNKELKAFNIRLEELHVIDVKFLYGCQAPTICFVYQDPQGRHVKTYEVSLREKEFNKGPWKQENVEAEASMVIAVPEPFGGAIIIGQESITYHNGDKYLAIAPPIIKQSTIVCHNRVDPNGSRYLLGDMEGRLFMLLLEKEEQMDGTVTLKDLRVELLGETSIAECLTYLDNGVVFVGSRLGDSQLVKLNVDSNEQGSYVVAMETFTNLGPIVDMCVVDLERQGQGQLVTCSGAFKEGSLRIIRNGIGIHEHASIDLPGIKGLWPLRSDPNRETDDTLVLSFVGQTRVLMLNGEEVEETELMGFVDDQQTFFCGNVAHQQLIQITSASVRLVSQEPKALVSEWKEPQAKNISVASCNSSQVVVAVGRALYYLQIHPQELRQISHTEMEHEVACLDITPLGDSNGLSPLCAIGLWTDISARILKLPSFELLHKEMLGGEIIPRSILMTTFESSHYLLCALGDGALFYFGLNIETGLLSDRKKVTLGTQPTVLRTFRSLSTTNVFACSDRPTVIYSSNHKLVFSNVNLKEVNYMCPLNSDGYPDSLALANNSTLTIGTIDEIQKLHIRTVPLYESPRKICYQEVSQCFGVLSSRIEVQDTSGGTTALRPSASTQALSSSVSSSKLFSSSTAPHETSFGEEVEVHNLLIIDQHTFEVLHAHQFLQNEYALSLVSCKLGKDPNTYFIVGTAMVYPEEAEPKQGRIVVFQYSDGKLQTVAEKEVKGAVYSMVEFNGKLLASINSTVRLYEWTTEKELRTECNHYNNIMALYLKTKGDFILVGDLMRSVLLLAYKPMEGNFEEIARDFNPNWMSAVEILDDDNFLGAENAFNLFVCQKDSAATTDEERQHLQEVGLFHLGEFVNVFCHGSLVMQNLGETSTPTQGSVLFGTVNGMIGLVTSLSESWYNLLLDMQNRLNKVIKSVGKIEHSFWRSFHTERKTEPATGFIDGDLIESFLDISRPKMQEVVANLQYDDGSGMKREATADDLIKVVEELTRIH

Row | SMILES | Dmax [1] | remaining activity at up to 25 µM | DC50 | Dmax [2] | remaining activity
1 | CC(C)(C)OC(=O)N1CCC(c2ccccc2CN2CCCC[C@@H]2COc2ccc3c(c2)CN(C2CCC(=O)NC2=O)C3=O)CC1 (stereo partly drawn) [Compound I-122, Tert-butyl 4-(2-(((2R)-2-(((2-(2,6-dioxopiperidin-3-yl)-1-oxoisoindolin-5-yl)oxy)methyl)piperidin-1-yl)methyl)phenyl)piperidine-1-carboxylate] | 87.6% | 12.4% | 51 nM |  | 
2 | CCN1CCC(c2ccccc2CN2CCCC[C@@H]2COc2ccc3c(c2)CN(C2CCC(=O)NC2=O)C3=O)CC1 (stereo partly drawn) [Compound I-124, 3-(5-(((R)-1-(2-(1-ethylpiperidin-4-yl)benzyl)piperidin-2-yl)methoxy)-1-oxoisoindolin-2-yl)piperidine-2,6-dione] | 94.4% | 5.61% | 40 nM |  | 
3 | CC(C)(C)OC(=O)N1CCC(c2ccc(CN3CCCC[C@@H]3COc3ccc4c(c3)CN(C3CCC(=O)NC3=O)C4=O)cc2)CC1 (stereo partly drawn) [Compound I-127, Tert-butyl 4-(4-(((2R)-2-(((2-(2,6-dioxopiperidin-3-yl)-1-oxoisoindolin-5-yl)oxy)methyl)piperidin-1-yl)methyl)phenyl)piperidine-1-carboxylate] | 93.4% | 6.64% | 1.9 nM |  | 
4 | CCN1CCC(c2ccc(CN3CCCC[C@@H]3COc3ccc4c(c3)CN(C3CCC(=O)NC3=O)C4=O)cc2)CC1 (stereo partly drawn) [Compound I-129, 3-(5-(((R)-1-(4-(1-ethylpiperidin-4-yl)benzyl)piperidin-2-yl)methoxy)-1-oxoisoindolin-2-yl)piperidine-2,6-dione] |  |  | 46 nM | 67.7% | 32.3%
5 | COc1ccc(CN2CCCC[C@@H]2COc2ccc3c(c2)CN(C2CCC(=O)NC2=O)C3=O)c(OC)c1 (stereo partly drawn) [Compound I-131, 3-(5-(((R)-1-(2,4-dimethoxybenzyl)piperidin-2-yl)methoxy)-1-oxoisoindolin-2-yl)piperidine-2,6-dione] | 88.9% | 11.1% | 0.52 nM |  | 
6 | COc1ccccc1CN1CCCC[C@@H]1COc1ccc2c(c1)CN(C1CCC(=O)NC1=O)C2=O (stereo partly drawn) [Compound I-133, 3-(5-(((R)-1-(2-methoxybenzyl)piperidin-2-yl)methoxy)-1-oxoisoindolin-2-yl)piperidine-2,6-dione] |  |  | 8.8 nM | 83.3% | 16.7%
7 | O=C1CCC(N2Cc3cc(OC[C@H]4CCCCN4Cc4cccc5c4OCCO5)ccc3C2=O)C(=O)N1 (stereo partly drawn) [Compound I-135, 3-(5-(((R)-1-((2,3-dihydrobenzo[b][1,4]dioxin-5-yl)methyl)piperidin-2-yl)methoxy)-1-oxoisoindolin-2-yl)piperidine-2,6-dione] | 81.8% | 18.2% | 34 nM |  | 
8 | O=C1CCC(N2Cc3cc(OC[C@H]4CCCCN4Cc4ccc5c(c4)OCO5)ccc3C2=O)C(=O)N1 (stereo partly drawn) [Compound I-137, 3-(5-(((R)-1-(benzo[d][1,3]dioxol-5-ylmethyl)piperidin-2-yl)methoxy)-1-oxoisoindolin-2-yl)piperidine-2,6-dione] |  |  | 1.5 nM | 90% | 10%
9 | O=C1CCC(N2Cc3cc(OC[C@H]4CCCCN4Cc4cc(F)c(F)c(F)c4)ccc3C2=O)C(=O)N1 (some centres unmarked) [Compound I-144] | 93.7% | 6.3% | 76 nM |  | 
10 | Cc1nc(C)c(CN2CCCC[C@@H]2COc2ccc3c(c2)CN(C2CCC(=O)NC2=O)C3=O)s1 (some centres unmarked) [Compound I-145] | 97.3% | 2.68% | 19 nM |  | 
11 | Cc1csc(CN2CCCC[C@@H]2COc2ccc3c(c2)CN(C2CCC(=O)NC2=O)C3=O)n1 (some centres unmarked) [Compound I-151] | 65.1% | 34.9% | 3430 nM |  | 
12 | CCc1cc(CN2CCCC[C@@H]2COc2ccc3c(c2)CN(C2CCC(=O)NC2=O)C3=O)ccc1C1CCN(C(=O)OC(C)(C)C)CC1 (stereo partly drawn) [Compound I-155, Tert-butyl 4-(4-(((2R)-2-(((2-(2,6-dioxopiperidin-3-yl)-1-oxoisoindolin-5-yl)oxy)methyl)piperidin-1-yl)methyl)-2-ethylphenyl)piperidine-1-carboxylate] | 75.2% | 24.9% | 20 nM |  | 
13 | CCc1cc(CN2CCCC[C@@H]2COc2ccc3c(c2)CN(C2CCC(=O)NC2=O)C3=O)ccc1C1CCN(CC)CC1 (stereo partly drawn) [Compound I-157, 3-(5-(((R)-1-(3-ethyl-4-(1-ethylpiperidin-4-yl)benzyl)piperidin-2-yl)methoxy)-1-oxoisoindolin-2-yl)piperidine-2,6-dione] |  |  | 160 nM | 63% | 37%
14 | O=C1CCC(N2Cc3cc(OC[C@H]4CCCCN4Cc4ccc(N5CCCCC5)cc4)ccc3C2=O)C(=O)N1 (stereo partly drawn) [Compound I-161, 3-(1-oxo-5-(((R)-1-(4-(piperidin-1-yl)benzyl)piperidin-2-yl)methoxy)isoindolin-2-yl)piperidine-2,6-dione] | 91.5% | 8.45% | 0.37 nM |  | 
15 | COC12CC(CN3CCCC[C@@H]3COc3ccc4c(c3)CN(C3CCC(=O)NC3=O)C4=O)(C1)C2 (stereo partly drawn) [Compound I-163, 3-(5-(((R)-1-((3-methoxybicyclo[1.1.1]pentan-1-yl)methyl)piperidin-2-yl)methoxy)-1-oxoisoindolin-2-yl)piperidine-2,6-dione] | 70.5% | 29.5% | 29 nM |  | 
16 | CCN1CCN(c2ccc(F)cc2CN2CCCC[C@@H]2COc2ccc3c(c2)CN(C2CCC(=O)NC2=O)C3=O)CC1 (stereo partly drawn) [Compound I-169, 3-(5-(((R)-1-(2-(4-ethylpiperazin-1-yl)-5-fluorobenzyl)piperidin-2-yl)methoxy)-1-oxoisoindolin-2-yl)piperidine-2,6-dione] |  |  | 34 nM | 84.6% | 15.4%
17 | O=C1CCC(N2Cc3cc(OC[C@H]4CCCCN4Cc4ccc(C5(C(F)(F)F)CC5)cc4)ccc3C2=O)C(=O)N1 (stereo partly drawn) [Compound I-173, 3-(1-oxo-5-(((R)-1-(4-(1-(trifluoromethyl)cyclopropyl)benzyl)piperidin-2-yl)methoxy)isoindolin-2-yl)piperidine-2,6-dione] | 94.3% | 5.71% | 0.22 nM |  | 
18 | O=C1CCC(N2Cc3cc(OC[C@H]4CCCCN4Cc4cccc5c4NCCO5)ccc3C2=O)C(=O)N1 (stereo partly drawn) [Compound I-178, 3-(5-(((R)-1-((3,4-dihydro-2H-benzo[b][1,4]oxazin-5-yl)methyl)piperidin-2-yl)methoxy)-1-oxoisoindolin-2-yl)piperidine-2,6-dione] | 78.7% | 21.3% | 20 nM |  | 
19 | CCN1CCOc2cccc(CN3CCCC[C@@H]3COc3ccc4c(c3)CN(C3CCC(=O)NC3=O)C4=O)c21 (stereo partly drawn) [Compound I-179, 3-(5-(((R)-1-((4-ethyl-3,4-dihydro-2H-benzo[b][1,4]oxazin-5-yl)methyl)piperidin-2-yl)methoxy)-1-oxoisoindolin-2-yl)piperidine-2,6-dione] |  |  | 5.7 nM | 73.9% | 26.1%
20 | O=C1CCC(N2Cc3cc(OC[C@H]4CCCCN4Cc4cccc5c4NC(=O)CO5)ccc3C2=O)C(=O)N1 (stereo partly drawn) [Compound I-180, 3-(1-oxo-5-(((R)-1-((3-oxo-3,4-dihydro-2H-benzo[b][1,4]oxazin-5-yl)methyl)piperidin-2-yl)methoxy)isoindolin-2-yl)piperidine-2,6-dione] | 15.3% | 84.7% | 20 nM |  | 
21 | O=C1CCC(N2Cc3cc(OC[C@H]4CCCCN4Cc4ccc5c(c4)OC(F)(F)O5)ccc3C2=O)C(=O)N1 (some centres unmarked) [Compound I-184] | 92.7% | 7.28% | 0.47 nM |  | 

Second part, led by results:

Row | Dmax [1] | remaining activity at up to 25 µM | DC50 | SMILES | Dmax [2] | remaining activity
22 | 37.4% | 62.6% |  | O=C1CCC(N2Cc3cc(OC[C@H]4CCCCN4Cc4cccc(F)c4O)ccc3C2=O)C(=O)N1 (some centres unmarked) [Compound I-143] |  | 
23 | 68.7% | 31.3% | 2200 nM | O=C1CCC(N2Cc3cc(OC[C@H]4CCCCN4Cc4ccncc4)ccc3C2=O)C(=O)N1 (some centres unmarked) [Compound I-146] |  | 
24 | 71.6% | 28.4% | 1080 nM | O=C1CCC(N2Cc3cc(OC[C@H]4CCCCN4Cc4c(F)cccc4F)ccc3C2=O)C(=O)N1 (some centres unmarked) [Compound I-147] |  | 
25 | 94.5% | 5.51% | 20 nM | O=C1CCC(N2Cc3cc(OC[C@H]4CCCCN4Cc4ccc(O)cc4)ccc3C2=O)C(=O)N1 (some centres unmarked) [Compound I-148] |  | 
26 | 56.9% | 43.1% | 11400 nM | O=C1CCC(N2Cc3cc(OC[C@H]4CCCCN4Cc4cccnc4F)ccc3C2=O)C(=O)N1 (some centres unmarked) [Compound I-149] |  | 
27 | 98.6% | 1.39% | 17 nM | O=C1CCC(N2Cc3cc(OC[C@H]4CCCCN4Cc4cnc5ccccc5c4)ccc3C2=O)C(=O)N1 (some centres unmarked) [Compound I-150] |  | 
28 | 97.5% | 2.52% | 48 nM | O=C1CCC(N2Cc3cc(OC[C@H]4CCCCN4Cc4ccc5ccccc5n4)ccc3C2=O)C(=O)N1 (some centres unmarked) [Compound I-152] |  | 
29 | 94.1% | 5.93% | 0.083 nM | CC(C)(C)c1ccc(CN2CCCC[C@@H]2COc2ccc3c(c2)CN(C2CCC(=O)NC2=O)C3=O)cc1 (some centres unmarked) [Compound I-158] |  | 
30 | 86.1% | 13.9% | 4 nM | O=C1CCC(N2Cc3cc(OC[C@H]4CCCCN4CCOCc4ccccc4)ccc3C2=O)C(=O)N1 (stereo partly drawn) [Compound I-183, 3-(5-(((R)-1-(2-(benzyloxy)ethyl)piperidin-2-yl)methoxy)-1-oxoisoindolin-2-yl)piperidine-2,6-dione] |  | 
